Target: Human plasma kallikrein (Homo sapiens (Human), UniProt P03952)
Test: In vitro plasma kallikrein inhibition assay (chromogenic substrate D-Pro-Phe-Arg-pNa, absorbance at 405 nm, IC50 determination)
Assay type: biochemical
Conditions: for IC50: read-out: KLKB1 pIC50 (converted)

Human plasma kallikrein, sequence (P03952 391-638): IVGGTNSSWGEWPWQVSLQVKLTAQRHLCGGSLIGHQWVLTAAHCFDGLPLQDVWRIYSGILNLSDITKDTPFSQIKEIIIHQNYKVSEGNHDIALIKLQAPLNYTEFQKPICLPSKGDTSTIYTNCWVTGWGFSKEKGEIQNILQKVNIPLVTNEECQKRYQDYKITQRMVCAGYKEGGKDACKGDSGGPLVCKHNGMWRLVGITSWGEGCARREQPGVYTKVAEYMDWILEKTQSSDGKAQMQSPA
Human plasma kallikrein, sequence (P03952 20-390 partner): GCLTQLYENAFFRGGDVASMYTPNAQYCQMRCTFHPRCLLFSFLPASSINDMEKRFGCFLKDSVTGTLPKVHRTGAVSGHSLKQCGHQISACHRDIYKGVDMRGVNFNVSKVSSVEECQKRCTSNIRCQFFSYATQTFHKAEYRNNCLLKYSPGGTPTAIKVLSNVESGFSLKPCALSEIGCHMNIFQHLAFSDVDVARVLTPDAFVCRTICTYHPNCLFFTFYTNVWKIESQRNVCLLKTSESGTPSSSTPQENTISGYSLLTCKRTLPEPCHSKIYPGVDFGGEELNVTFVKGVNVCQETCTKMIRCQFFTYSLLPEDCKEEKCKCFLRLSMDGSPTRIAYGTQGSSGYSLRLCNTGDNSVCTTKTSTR

Row | IC50 [nM] | KLKB1 pIC50 | Structure (SMILES)
1 | 209 |  | CCc1cc2c(cc1CC)C1OC2c2ccc(C(=O)NCc3c(C)cc(N)nc3C)cc21 (racemic) [Example 303, (±)-N-[(6-amino-2,4-dimethyl-pyridin-3-yl)methyl]-11,12-diethyl-15-oxatetracyclo [6.6.1.0^2,^7.0^9,1^4]pentadeca-2,4,6,9(14),10,12-hexaene-4-carboxamide]
2 | 224 |  | Cc1cc2c(cc1C)C1OC2c2ccc(C(=O)NCc3c(C)cc(N)nc3C)cc21 (racemic) [Example 308, (±)-N-[(6-amino-2,4-dimethyl-pyridin-3-yl)methyl]-11,12-dimethyl-15-oxatetracyclo [6.6.1.0^2,^7.0^9,1^4]pentadeca-2,4,6,9(14),10,12-hexaene-4-carboxamide]
3 | 32.4 |  | Cc1cc(N)nc(C)c1CNC(=O)c1ccc2c(c1)C1OC2c2cc(C3CC3)c(C3CC3)cc21 (racemic) [Example 311, (±)-N-[(6-amino-2,4-dimethyl-pyridin-3-yl)-methyl]-11,12-dicyclopropyl-15-oxatetracyclo [6.6.1.0^2,^7.0^9,1^4]pentadeca-2,4,6,9,11,13-hexaene-4-carboxamide]
4 | 871 |  | Cc1cc(N)nc(C)c1CNC(=O)c1ccc2c(c1)C1OC2c2cc(-c3ccccc3)c(-c3ccccc3)cc21 (racemic) [Example 314, (±)-N-[(6-amino-2,4-dimethyl-pyridin-3-yl)-methyl]-11,12-diphenyl-15-oxatetracyclo-[6.6.1.0^2,^7.0^9,1^4]pentadeca-2,4,6,9,11,13-hexaene-4-carboxamide]
5 | 1.82 |  | CCc1cc2c(cc1CC)C1OC2c2ccc(C(=O)NCc3ccc(C(=N)N)cc3)cc21 (racemic) [Example 315, (±)-N-[(4-carbamimidoylphenyl)methyl]-11,12-diethyl-15-oxatetracyclo[6.6.1.0^2,^7.0^9,1^4]-pentadeca-2,4,6,9(14),10,12-hexaene-4-carboxamide]
6 | 4.9 |  | N=C(N)c1ccc(CNC(=O)c2ccc3c(c2)C2OC3c3cc(C4CC4)c(C4CC4)cc32)cc1 (racemic) [Example 316, (±)-N-[(4-carbamimidoyl-phenyl)methyl]-11,12-dicyclopropyl-15-oxatetracyclo [6.6.1.0^2,^7.0^9,1^4]-pentadeca-2,4,6,9,11,13-hexaene-4-carboxamide]
7 | 28.8 |  | Cc1cc2c(cc1C)C1OC2c2ccc(C(=O)NCc3ccc(C(=N)N)cc3)cc21 (racemic) [Example 317, (±)-N-[(4-carbamimidoylphenyl)methyl]-11,12-dimethyl-15-oxatetracyclo[6.6.1.0^2,^7.0^9,1^4]-pentadeca-2,4,6,9(14),10,12-hexaene-4-carboxamide]
8 | 17.4 |  | Cc1cc(N)nc(C)c1CNC(=O)c1ccc2c(c1)C1OC2c2cc3c(cc21)C(=O)N(C)C3=O (racemic) [Example 318, (±)-N-[(6-amino-2,4-dimethyl-pyridin-3-yl)methyl]-6-methyl-5,7-dioxo-18-oxa-6-azapentacyclo [9.6.1.0^2,1^0.0^4,^8.0^12,1^4]octadeca-2(10),3,8,12,14,16-hexaene-14-carboxamide]
9 | 2450 |  | COC(=O)c1cc2c(cc1C(=O)OC)C1OC2c2ccc(C(=O)NCc3c(C)cc(N)nc3C)cc21 (racemic) [Example 319, (±)-4,5-dimethyl 11-{[(6-amino-2,4-dimethyl-pyridin-3-yl)methyl]carbamoyl}-15-oxatetracyclo[6.6.1.0^2,^7.0^9,1^4] pentadeca-2(7),3,5,9,11,13-hexaene-4,5-dicarboxylate]
10 | 10200 |  | Cc1cc(N)nc(C)c1CNC(=O)c1ccc2c(c1)C1OC2c2cc3c(O)nnc(O)c3cc21 (racemic) [Example 320, (±)-N-[(6-amino-2,4-dimethyl-pyridin-3-yl)methyl]-5,8-dihydroxy-19-oxa-6,7-diazapentacyclo [10.6.1.0^2,^11.0^4,^9.0^13,1^8] nonadeca-2(11),3,5,7,9,13,15,17-octaene-15-carboxamide]
11 |  | 8.09 | CCc1cc2c(cc1-c1ccc(F)cc1F)C1OC2c2ccc(C(=O)NCc3c(C)cc(N)nc3C)cc21 (racemic) [Example 321, (±)-N-[(6-amino-2,4-dimethyl-pyridin-3-yl)methyl]-12-(2,4-difluorophenyl)-11-ethyl-15-oxatetracyclo[6.6.1.0^2,^7.0^9,1^4] pentadeca-2,4,6,9(14),10,12-hexaene-4-carboxamide and (±)-N-[(6-amino-2,4-dimethylpyridin-3-yl)methyl]-11-(2,4-difluorophenyl)-12-ethyl-15-oxatetracyclo [6.6.1.0^2,^7.0^9,1^4]pentadeca-2,4,6,9(14),10,12-hexaene-4-carboxamide]
12 | 851 |  | Cc1cc(N)nc(C)c1CNC(=O)c1ccc2c(c1)C1OC2c2cc(C#N)c(C#N)cc21 (racemic) [Example 326, (±)-N-((6-amino-2,4-dimethylpyridin-3-yl)methyl]-11,12-dicyano-15-oxatetracyclo-[6.6.1.0^2,^7.0^9,1^4]pentadeca-2,4,6,9,11,13-hexaene-4-carboxamide]
13 |  | 5.6 | Cc1cc(N)nc(C)c1CNC(=O)c1ccc2c(c1)C1OC2(C)c2ccc(-c3ccc(F)cc3)cc21 (racemic) [Example 334, (±)-N-[(6-amino-2,4-dimethyl-pyridin-3-yl)methyl]-12-(4-fluorophenyl)-8-methyl-15-oxatetracyclo[6.6.1.0^2,^7.0^9,1^4] pentadeca-2,4,6,9,11,13-hexaene-4-carboxamide (±)-N-[(6-amino-2,4-dimethylpyridin-3-yl)methyl]-11-(4-fluorophenyl)-8-methyl-15-oxatetracyclo[6.6.1.0^2,^7.0^9,1^4] pentadeca-2,4,6,9,11,13-hexaene-4-carboxamide]
14 | 1620 |  | COc1cc2c(cc1OC)C1OC2c2ccc(C(=O)NCc3c(C)cc(N)nc3C)cc21 (racemic) [Example 335, (±)-N-[(6-amino-2,4-dimethylpyridin-3-yl)methyl]-11,12-dimethoxy-15-oxatetracyclo[6.6.1.0^2,^7.0^9,1^4] pentadeca-2,4,6,9(14),10,12-hexaene-4-carboxamide]
15 |  | 6.64 | Cc1cc(N)nc(C)c1CNC(=O)c1ccc2c(c1)C1OC2c2c(C)cc(-c3ccc(F)cc3)cc21 (racemic) [Example 340, (±)-N-[(6-amino-2,4-dimethyl-pyridin-3-yl)methyl]-12-(4-fluorophenyl)-10-methyl-15-oxatetracyclo[6.6.1.0^2,^7.0^9,1^4] pentadeca-2,4,6,9(14),10,12-hexaene-4-carboxamide and (±)-N-[(6-amino-2,4-dimethylpyridin-3-yl)methyl]-11-(4-fluorophenyl)-13-methyl-15-oxatetracyclo [6.6.1.0^2,^7.0^9,1^4]pentadeca-2,4,6,9(14),10,12-hexaene-4-carboxamide]
16 | 550 |  | Cc1cc(N)nc(C)c1CNC(=O)c1ccc2c(c1)C1OC2c2cc3c(cc21)OCCO3 (racemic) [Example 342, (±)-N-[(6-amino-2,4-dimethylpyridin-3-yl)methyl]-5,8,19-trioxapentacyclo-[10.6.1.0^2,11.0^4,^9.0^13,1^8]nonadeca-2,4(9),10,13,15,17-hexaene-15-carboxamide]
17 | 427 |  | CC12OC(C)(c3cc(C(=O)NCc4ccc(C(=N)N)cc4)ccc31)c1cc(-c3ccc(F)cc3)ccc12 (racemic) [Example 344, N-[(4-carbamimidoylphenyl)methyl]-12-(4-fluorophenyl)-1,8-dimethyl-15-oxatetracyclo [6.6.1.0^2,^7.0^9,1^4]pentadeca-2,4,6,9,11,13-hexaene-4-carboxamide]

Reference: patent publication US10144746B2 (GLOBAL BLOOD THERAPEUTICS, INC., priority 2015, dated 2018)
